In ChEMBL document CHEMBL2086273, “Significant activity of ecdysteroids on the resistance to doxorubicin in mammalian cancer cells expressing the human ABCB1 transporter” (J Med Chem, 2012):

How the values were obtained:
Assay type in all cases: cell-based
[1] = molecular target: T1, ATP-dependent translocase ABCB1 (Homo sapiens, UniProt P08183); test: Inhibition of human ABCB1 expressed in mouse L5178 cells assessed as 50% inhibition of cell proliferation at compound-doxorubicin ratio of 40.8:1 after 48 hrs by MTT assay; details: l5178, 48 h
T1 sequence (P08183 whole entry): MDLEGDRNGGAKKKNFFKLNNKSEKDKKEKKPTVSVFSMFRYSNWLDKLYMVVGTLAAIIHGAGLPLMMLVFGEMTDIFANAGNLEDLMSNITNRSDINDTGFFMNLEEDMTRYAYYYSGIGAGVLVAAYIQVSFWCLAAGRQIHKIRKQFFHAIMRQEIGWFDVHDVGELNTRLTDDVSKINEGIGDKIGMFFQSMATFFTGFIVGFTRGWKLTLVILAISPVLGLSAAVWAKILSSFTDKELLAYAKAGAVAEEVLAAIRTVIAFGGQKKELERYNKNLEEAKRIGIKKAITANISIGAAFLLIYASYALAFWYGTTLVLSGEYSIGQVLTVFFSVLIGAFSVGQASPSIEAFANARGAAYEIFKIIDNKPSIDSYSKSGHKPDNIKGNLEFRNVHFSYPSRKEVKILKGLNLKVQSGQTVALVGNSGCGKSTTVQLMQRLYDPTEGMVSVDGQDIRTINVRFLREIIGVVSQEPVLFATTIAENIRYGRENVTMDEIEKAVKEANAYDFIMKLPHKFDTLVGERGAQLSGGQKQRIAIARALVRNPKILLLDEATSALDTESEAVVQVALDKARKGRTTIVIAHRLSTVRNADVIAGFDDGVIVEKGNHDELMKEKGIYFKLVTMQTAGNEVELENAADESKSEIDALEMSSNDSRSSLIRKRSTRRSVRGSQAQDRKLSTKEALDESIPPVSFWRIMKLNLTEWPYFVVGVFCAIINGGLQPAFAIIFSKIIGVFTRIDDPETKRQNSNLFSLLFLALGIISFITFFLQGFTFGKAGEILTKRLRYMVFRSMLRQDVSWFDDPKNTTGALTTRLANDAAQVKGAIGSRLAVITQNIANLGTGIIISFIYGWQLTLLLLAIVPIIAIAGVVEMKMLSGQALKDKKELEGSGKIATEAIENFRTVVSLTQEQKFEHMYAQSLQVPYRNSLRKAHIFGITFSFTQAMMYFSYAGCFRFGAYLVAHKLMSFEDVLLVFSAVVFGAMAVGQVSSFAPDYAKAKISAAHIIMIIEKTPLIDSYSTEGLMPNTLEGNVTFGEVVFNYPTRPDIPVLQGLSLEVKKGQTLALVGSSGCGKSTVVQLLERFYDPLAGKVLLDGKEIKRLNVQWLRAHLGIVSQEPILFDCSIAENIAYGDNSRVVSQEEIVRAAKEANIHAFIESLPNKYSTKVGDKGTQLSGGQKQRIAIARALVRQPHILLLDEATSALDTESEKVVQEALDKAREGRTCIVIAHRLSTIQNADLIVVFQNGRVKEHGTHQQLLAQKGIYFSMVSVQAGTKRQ

[2] = molecular target: T1, ATP-dependent translocase ABCB1; test: Inhibition of human ABCB1 expressed in mouse L5178 cells assessed as 75% inhibition of cell proliferation at compound-doxorubicin ratio of 40.8:1 after 48 hrs by MTT assay; details: l5178, 48 h
[3] = molecular target: T1, ATP-dependent translocase ABCB1; test: Inhibition of human ABCB1 pump expressed in mouse L5178 cells assessed as fluorescence activity ratio at 20 uM for 10 mins by flow cytometry relative to control; details: l5178, 10 min
[4] = molecular target: T1, ATP-dependent translocase ABCB1; test: Inhibition of human ABCB1 expressed in mouse L5178 cells assessed as 95% inhibition of cell proliferation at compound-doxorubicin ratio of 40.8:1 after 48 hrs by MTT assay; details: l5178, 48 h
[5] = molecular target: T1, ATP-dependent translocase ABCB1; test: Inhibition of human ABCB1 expressed in mouse L5178 cells assessed as 95% inhibition of cell proliferation at compound-doxorubicin ratio of 20.4:1 after 48 hrs by MTT assay; details: l5178, 48 h
[6] = molecular target: T1, ATP-dependent translocase ABCB1; test: Inhibition of human ABCB1 expressed in mouse L5178 cells assessed as 50% inhibition of cell proliferation at compound-doxorubicin ratio of 20.4:1 after 48 hrs by MTT assay; details: l5178, 48 h
[7] = molecular target: T1, ATP-dependent translocase ABCB1; test: Inhibition of human ABCB1 expressed in mouse L5178 cells assessed as 75% inhibition of cell proliferation at compound-doxorubicin ratio of 20.4:1 after 48 hrs by MTT assay; details: l5178, 48 h

Row | SMILES | fractional inhibitory concentration index (FICI) [1] | fractional inhibitory concentration index (FICI) [2] | Ratio [3] | fractional inhibitory concentration index (FICI) [4] | fractional inhibitory concentration index (FICI) [5] | fractional inhibitory concentration index (FICI) [6] | fractional inhibitory concentration index (FICI) [7]
1 | C[C@@H]1C(=O)O[C@H](C)[C@H]1C[C@@H](O)[C@](C)(O)[C@H]1CC[C@@]2(O)C3=CC(=O)[C@@H]4C[C@@H](O)[C@@H](O)C[C@]4(C)[C@H]3CC[C@]12C [CYASTERONE] | 1.54 | 0.85 | 0.75 | 0.47 | – | – | –
2 | C[C@]12C[C@H](O)[C@H](O)C[C@H]1C(=O)C=C1[C@@H]2CC[C@]2(C)C(=O)CC[C@@]12O [RUBROSTERONE] | 1.12 | 0.65 | 0.89 | 0.41 | – | – | –
3 | C=C(CCCC(C)(C)O)[C@H]1CC[C@@]2(O)C3=CC(=O)[C@@H]4C[C@@H](O)[C@@H](O)C[C@]4(C)[C@H]3CC[C@]12C | 1.05 | 0.71 | 0.88 | 0.53 | – | – | –
4 | CC(C)CC[C@H]1OC(C)(C)O[C@]1(C)[C@H]1CC[C@@]2(O)C3=CC(=O)[C@@H]4C[C@@H](O)[C@@H](O)C[C@]4(C)[C@H]3[C@H](O)C[C@]12C | – | – | 1.93 | – | 0.13 | 0.52 | 0.25
5 | C=C(CCCC(C)(C)O)[C@H]1CC[C@@]2(O)C3=CC(=O)[C@@H]4C[C@@H](O)[C@@H](O)[C@@H](O)[C@]4(C)[C@H]3CC[C@]12C | – | – | 1.58 | – | 0.95 | 0.79 | 0.86
6 | CC(C)(O)CC[C@H]1OC(C)(C)O[C@]1(C)[C@H]1CC[C@@]2(O)C3=CC(=O)[C@@H]4C[C@@H](O)CC[C@]4(C)[C@H]3CC[C@]12C | – | – | 7.01 | – | 0.091 | 0.88 | 0.28
7 | CC(C)(O)CC[C@@H](O)[C@](C)(O)[C@H]1CC[C@@]2(O)C3=CC(=O)[C@@H]4C[C@@H](O)[C@@H](O)C[C@]4(C)[C@H]3CC[C@]12C [20-HYDROXYECDYSONE] | – | – | 1.76 | – | 2.04 | 2 | 2.02
8 | CC(C)(O)CC[C@H]1OC(C)(C)O[C@]1(C)[C@H]1CC[C@@]2(O)C3=CC(=O)[C@@H]4C[C@@H](O)[C@@H](O)[C@@H](O)[C@]4(C)[C@H]3CC[C@]12C | 1.16 | 0.51 | 1.14 | 0.23 | – | – | –
9 | CC(O)(CO)CC[C@H]1OC(C)(C)O[C@]1(C)[C@H]1CC[C@@]2(O)C3=CC(=O)[C@]4(O)C[C@@H](O)[C@@H](O)C[C@]4(C)[C@H]3CC[C@]12C (some centres not stated) | 0.42 | 0.16 | 13.32 | 0.062 | – | – | –
10 | CCC1C[C@H]([C@](C)(O)[C@H]2CC[C@@]3(O)C4=CC(=O)[C@@H]5C[C@@H](O)[C@@H](O)C[C@]5(C)[C@H]4CC[C@]23C)OC(=O)C1C (some centres not stated) [CAPITASTERONE] | 1.35 | 0.74 | 0.63 | 0.49 | – | – | –
11 | CC(C)(O)CC[C@H]1OC(C)(C)O[C@]1(C)[C@H]1CC[C@@]2(O)C3=CC(=O)[C@@H]4C[C@@H](O)[C@H]5OC(C)(C)O[C@H]5[C@]4(C)[C@H]3CC[C@]12C | – | – | 2.43 | – | 0.28 | 0.66 | 0.42
12 | CC(C)(O)CC[C@@H](O)[C@](C)(O)[C@H]1CC[C@@]2(O)C3=CC(=O)[C@]4(O)C[C@@H](O)[C@@H](O)C[C@]4(C)[C@H]3CC[C@]12C [POLYPODINE B] | – | – | 0.77 | – | 0.58 | 1.11 | 0.8
13 | C=C(C)C(C[C@@H](O)[C@](C)(O)[C@H]1CC[C@@]2(O)C3=CC(=O)[C@]4(O)C[C@@H](O)[C@@H](O)C[C@]4(C)[C@H]3CC[C@]12C)C(C)O (some centres not stated) [AJUGASTERONE B] | 1.21 | 0.59 | 0.7 | 0.3 | – | – | –
14 | CC(C)CC[C@H]1OC(C)(C)O[C@]1(C)[C@H]1CC[C@@]2(O)C3=CC(=O)[C@@H]4C[C@H]5OC(C)(C)O[C@H]5C[C@]4(C)C3=CC[C@]12C | – | – | 41.15 | – | 0.1 | 0.19 | 0.14
15 | CC(=O)O[C@H]1CC[C@@]2(C)[C@@H](C1)C(=O)C=C1[C@@H]2CC[C@]2(C)[C@@H]([C@H](C)[C@@H](CCC(C)(C)OC(C)=O)OC(C)=O)CC[C@@]12O | – | – | 25.07 | – | 0.14 | 0.41 | 0.23
16 | CC[C@H](C[C@H]1OC(C)(C)O[C@]1(C)[C@H]1CC[C@@]2(O)C3=CC(=O)[C@@H]4C[C@H]5OC(C)(C)O[C@H]5C[C@]4(C)[C@H]3CC[C@]12C)C(C)(C)O | – | – | 26.53 | – | 0.068 | 0.19 | 0.11
17 | CC(C)(O)CCC[C@](C)(O)[C@H]1CC[C@@]2(O)C3=CC(=O)[C@@H]4C[C@@H](O)[C@@H](O)[C@@H](O)[C@]4(C)[C@H]3CC[C@]12C | 1.37 | 0.9 | 0.66 | 0.6 | – | – | –
18 | CC(C)[C@@H](O)C[C@@H](O)[C@](C)(O)[C@H]1CC[C@@]2(O)C3=CC(=O)[C@@H]4C[C@@H](O)[C@@H](O)C[C@]4(C)[C@H]3CC[C@]12C [PTEROSTERONE] | 1.32 | 0.84 | 0.56 | 0.54 | – | – | –
19 | CC(C)CC[C@@H](O)[C@](C)(O)[C@H]1CC[C@@]2(O)C3=CC(=O)[C@@H]4C[C@@H](O)[C@@H](O)C[C@]4(C)C3=CC[C@]12C [DACRYHAINANSTERONE] | 1.76 | 2.92 | 1.07 | 5.46 | – | – | –
20 | CC(C)(O)CC[C@H]1OC(C)(C)O[C@]1(C)[C@H]1CC[C@@]2(O)C3=CC(=O)[C@@H]4C[C@H]5OC(C)(C)O[C@H]5[C@@H](O)[C@]4(C)[C@H]3CC[C@]12C | – | – | 2.53 | – | 0.24 | 1.23 | 0.49
21 | CC(C)(O)CC[C@@H](OC(=O)c1ccccc1)[C@](C)(O)[C@H]1CC[C@@]2(O)C3=CC(=O)[C@@H]4C[C@@H](O)[C@@H](O)C[C@]4(C)[C@H]3CC[C@]12C | 0.58 | 0.43 | 2.18 | 0.32 | – | – | –
22 | CC(=O)O[C@H]1CC[C@@]2(C)[C@@H](C1)C(=O)C=C1[C@@H]2CC[C@]2(C)[C@@H]([C@H](C)[C@@H](CCC(C)(C)O)OC(C)=O)CC[C@@]12O | – | – | 0.97 | – | 0.5 | 1.5 | 0.86
23 | CC(C)(O)CC[C@@H](O)[C@](C)(O)[C@H]1CC[C@@]2(O)C3=CC(=O)[C@H]4C[C@@H](O)C[C@@H](O)[C@]4(C)[C@H]3CC[C@]12C | – | – | 0.68 | – | 1.97 | 2.48 | 1.7
